Values joined by “and” are separate entries in the source; they are usually repeats but may differ in a detail not shown here. Equal entries are not always repeated.

One experiment has as its system rat pancreas. In words: Intraductal transfection of rat pancreas, luciferase assay. The format is in vivo. The following applies: 64 μg pCMV.FOX.Luc-2 in 100 μL into bile duct, 48 hours, four trials; ZnCl2 absent or 1.8 mM. The procedure: Male Sprague-Dawley rats (weighing 260-280 g) were fasted the night prior to treatment. Care was taken to ensure that this procedure was conducted under sterile conditions. After anesthesia (see above) and laparotomy, the distal end of the bile duct (at the level of the duodenum) was ligated, the proximal end of the pancreas (at the porta hepatis level) was temporary blocked by a ligature, a PE-10 tubing was inserted through an incision of the bile duct near the duodenum. 0.1 ml of the selected nucleic acid/transition metal enhancer mixture was injected in a retrograde manner into the duct. Successful injection was confirmed by visible swelling of the gland. For administration to the liver, the proximal portion of the bile duct (prior to its entry into pancreatic tissue) was injected. After DNA delivery, a by-pass operation was done by directly introducing the bile flow to duodenum through the exterior end of the PE-10 tubing. After carefully ensuring the ligatures were secure, 1 ml of ampicillin (15 mg/ml) was injected into the peritoneal cavity and the incision was closed in one layer, combining fascia and skin with 3-0 silk suture. The closed incision was washed with dilute ethanol and the animal was monitored under a heat lamp until it was fully awake and ambulatory. The […] were terminated 48 hours after treatment. […]

The test system of a further experiment is rat submandibular gland. As to the kind of experiment: Cationic liposome-mediated hGH gene delivery to rat submandibular gland. The class given is in vivo. Details: human growth hormone protein expression, Trial 1 to Trial 8: unit not given here. To be noted: for human growth hormone protein expression, Average / human growth hormone protein expression, Trial 1 to Trial 8: one week post-administration; for human growth hormone protein expression, Trial 1 to Trial 8: individual glands, DOHBD:DOPE liposome, 175 micrograms pCMV.FOX.hGH per gland, listed as Zn. The protocol: In embodiments in which a liposome/transition metal/nucleic acid mixture was used, 200 μl of the liposome/transition metal/nucleic acid mixture was injected, infused, instilled or administered at the ductal orifice or directly into the duct at any point along its length. See Goldfine, Nature Biotechnology 15:1378, 1997. The liposome/transition metal/nucleic acid mixture was prepared by sequentially adding an appropriate amount of sterile water, liposome solution (3:1, N,N,N′,N′-tetramethyl-N,N′-bis(2-hydroxyethyl)-2,3-bis(9(z)-octadecenoyloxy)-1,4-butanediaminium iodide (DOHBD):DOPE), transition metal enhancer, and the plasmid DNA pCMV.FOX.hGH to a polypropylene tube.
Regardless of whether a liposome/transition metal/nucleic acid mixture or a nucleic acid/transition metal enhancer mixture was delivered, the tubing and mixture was kept in place for ten additional minutes after application of the mixture prior to removal. At 48 hours post atropine administration, the rats were anesthetized by intraperitoneal injection of pentobarbital (50 mg/kg). The right and left submandibular glands were surgically removed, and the tissues were assayed for any observable reporter gene (luciferase of hGH) expression using the methods described below.
In one embodiment, an appropriate mass of cationic lipid and the neutral lipid dioleoylphosphatidylethanolamine (DOPE) was added as solutions in chloroform to 1.9 mL sample vials to yield the desired molar ratio of cationic lipid:DOPE. The chloroform was removed via rotary evaporation at 37° C. The resulting thin lipid films were placed under vacuum overnight to insure that all traces of solvent have been removed. The lipid mixture was resuspended in 1 mL sterile water at 25° C. until the film is hydrated, and then vortex mixed to afford an emulsion. For the in vitro experiments, these emulsions were formulated as a cationic lipid concentration of 1 mM. For the in vivo experiments, the emulsions were formulated at a cationic lipid concentration of 3 mM.
To perform this study, cationic lipid/nucleic acid/zinc mixtures were prepared by mixing the appropriate amount of sterile water, cationic liposomes, zinc chloride and pCMV.FOX.hGH plasmid DNA in a polystyrene tube. Specifically, 40 microliters of a 3 mM 3:1 DOHBD:DOPE liposome mixture, 270 microliters of a 8.08 microgram/microliter pCMV.FOX.hGH plasmid DNA mixture, and an appropriate amount of a 70 mM zinc chloride mixture were added to a polystyrene tube containing a sufficient amount of water to give a final total volume of 2500 microliters. In this experiment, the final zinc chloride concentration was either 0.125 mM, 0.250 mM, or no zinc at all. The cationic lipid:DNA phosphate ratio in this study remained constant for all mixtures screened. Once prepared, 200 microliters of each mixture was instilled into the right and left submandibular glands of four male Sprague-Dawley rats. Thus, 175 micrograms of the plasmid DNA was instilled into each gland. After one week post-administration of the cationic lipid/nucleic acid/zinc mixtures, the salivary gland of the rats were extracted, mixed with a phosphate lysis buffer (10 mM, pH 8.0) and homogenized. The homogenate was then assayed for human growth hormone protein expression. […]

Take `[Cl-].[Cl-].[Zn+2]` [ZnCl2, zinc chloride]: the average luciferase activity in the experiment with rat pancreas is on record as 22028 relative luciferase light units per 10 mg of pancreatic tissue. Further, in the experiment with rat submandibular gland ([Zn] 0.125 mM), the “human growth hormone protein expression, Average” value was found to be 505.6361; the “human growth hormone protein expression, Trial 1 to Trial 8” value was 452.1 and 360.8 and 261.7 and 355.7 and 517.2 and 575.6 and 943.5 and 1084. Further, in the experiment with rat submandibular gland ([Zn] 0.25 mM), the “human growth hormone protein expression, Average” value was 464.7687; the “human growth hormone protein expression, Trial 1 to Trial 8” value was 857.731 and 753.3 and 272.6 and 315.3 and 604.3 and 449.9. Besides, the “enhancement of in vivo transfection compared to cationic liposome/nucleic acid mixture not containing zinc” value in the experiment with rat submandibular gland (rat submandibular gland) is reported as “at least two”.

Source of the values: patent US6624149B2, “Method for nucleic acid transfection of cells” (Genteric, Inc., priority 2000, dated 2003).
